Source: paper PMC5855875, “Teixobactin analogues reveal enduracididine to be non-essential for highly potent antibacterial activity and lipid II binding” (Chemical Science, 2017)
Bridge positions count the residues as written; N and C are the ends. Square brackets hold non-standard residues; d marks the D form. Peptide text beside a SMILES is read from it. d(aIle) = CC[C@H](C)[C@@H](N)C(=O)O; dNMeF = CN[C@H](Cc1ccccc1)C(=O)O

Test system: MRSA ATCC 33591
Experiment: microbe, parasite or virus in culture
Conditions: ATCC 33591, 24 h
Experimental: were grown in Mueller Hinton broth (Oxoid) in triplicate. All incubations were at 37°C. Dilutions were carried out in triplicate. 100 µl of autoclaved Mueller Hinton broth was added to wells 2-12 in a 96-well plate. 200 µl of the peptide was added to well one at a concentration of 256 µg/mL. 100µl of peptide in well one was taken up and pipetted into well two. The mixture was then mixed via pipetting before 100µl was taken up and pipetted into well three. This process was repeated up to well 11. Once […]
peptide present. Thus, the concentrations (in µg/mL) were: 256, 128, 64, 32, 16, 8, 4, 2, 1, 0.5, 0.25 and no peptide present. Each well was then inoculated with 100µl of bacteria that had been diluted to an […]
This was repeated three times. The 96-well plates were then incubated at 37°C for 24 hours. The MIC was determined to be the lowest concentration at which there was no growth visible. […]
was repeated at an altered initial concentration of 64 µg/ml. Therefore, the new concentrations for MIC […]
VIII. MIC testing (extended panel)
Bacterial cultures were grown overnight i n Mueller-Hinton Agar (MHA) plates and adjusted to a final concentration of 10 5 – 106 CFU/ml. 100 µl of inoculum in Meuller -Hinton broth (MHB) was mixed with equal volume of peptides (dissolved in MHB) at 2x their concentration in a 96 well plate. In parallel experiments, MIC values were determined in the media containing polysorbate 80 (0 .002%, v/v) to […]

| MIC | Structure (SMILES) |
| --- | --- |
| >128 μg mL^–1 | CC[C@H](C)[C@H](NC(=O)[C@H](NC(=O)[C@@H](CCC(N)=O)NC(=O)[C@H](CO)NC(=O)[C@H](C)NC(=O)[C@@H](Cc1ccccc1)NC)[C@@H](C)CC)C(=O)N[C@@H](CO)C(=O)N[C@H]1C(=O)N[C@@H](C)C(=O)N[C@@H](CCCNC(=N)N)C(=O)N[C@@H]([C@@H](C)CC)C(=O)O[C@H]1C [Compound 2, Ala2-Arg10-teixobactin] (H-[dNMeF]AS[dQ][d(aIle)]IS[dT]ARI; ester 8-C) |
| 1–2 μg mL^–1 | CC[C@H](C)[C@H](NC(=O)[C@@H](Cc1ccccc1)NC)C(=O)N[C@@H](C)C(=O)N[C@H](CCC(N)=O)C(=O)N[C@@H](C(=O)N[C@H](C(=O)N[C@@H](CO)C(=O)N[C@H]1C(=O)N[C@@H](C)C(=O)N[C@@H](CCCNC(=N)N)C(=O)N[C@@H]([C@@H](C)CC)C(=O)O[C@H]1C)[C@@H](C)CC)[C@@H](C)CC [Compound 3, Ala3-Arg10-teixobactin] (H-[dNMeF]IA[dQ][d(aIle)]IS[dT]ARI; ester 8-C) |
| 64–128 μg mL^–1 | CC[C@H](C)[C@H](NC(=O)[C@@H](C)NC(=O)[C@@H](CCC(N)=O)NC(=O)[C@H](CO)NC(=O)[C@@H](NC(=O)[C@@H](Cc1ccccc1)NC)[C@@H](C)CC)C(=O)N[C@@H](CO)C(=O)N[C@H]1C(=O)N[C@@H](C)C(=O)N[C@@H](CCCNC(=N)N)C(=O)N[C@@H]([C@@H](C)CC)C(=O)O[C@H]1C [Compound 5, D-Ala5-Arg10-teixobactin] (HELM PEPTIDE1{[CN[C@H](Cc1ccccc1)C(=O)[*:2]].I.S.[dQ].[dA].I.S.[C[C@H](O[*:3])[C@@H](N[*:1])C(=O)[*:2]].A.R.I}$PEPTIDE1,PEPTIDE1,8:R3-11:R2$$$V2.0) |
| >128 μg mL^–1 | CC[C@H](C)[C@H](NC(=O)[C@@H](Cc1ccccc1)NC)C(=O)N[C@@H](CO)C(=O)N[C@H](CCC(N)=O)C(=O)N[C@@H](C(=O)N[C@@H](C)C(=O)N[C@@H](CO)C(=O)N[C@H]1C(=O)N[C@@H](C)C(=O)N[C@@H](CCCNC(=N)N)C(=O)N[C@@H]([C@@H](C)CC)C(=O)O[C@H]1C)[C@@H](C)CC [Compound 6, Ala6-Arg10-teixobactin] (H-[dNMeF]IS[dQ][d(aIle)]AS[dT]ARI; ester 8-C) |

The remaining lines, values behind:

| Structure (SMILES) | MIC |
| --- | --- |
| CC[C@H](C)[C@H](NC(=O)[C@@H](C)NC(C)=O)C(=O)N[C@@H](CO)C(=O)N[C@H](CCC(N)=O)C(=O)N[C@@H](C(=O)N[C@H](C(=O)N[C@@H](CO)C(=O)N[C@H]1C(=O)N[C@@H](C)C(=O)N[C@@H](CCCNC(=N)N)C(=O)N[C@@H]([C@@H](C)CC)C(=O)O[C@H]1C)[C@@H](C)CC)[C@@H](C)CC [Compound 1, Ac-D-Ala1-Arg10-teixobactin] | >128 μg mL^–1 |
| CC[C@H](C)[C@H](NC(=O)[C@@H](Cc1ccccc1)NC)C(=O)N[C@@H](CO)C(=O)N[C@H](C)C(=O)N[C@@H](C(=O)N[C@H](C(=O)N[C@@H](CO)C(=O)N[C@H]1C(=O)N[C@@H](C)C(=O)N[C@@H](CCCNC(=N)N)C(=O)N[C@@H]([C@@H](C)CC)C(=O)O[C@H]1C)[C@@H](C)CC)[C@@H](C)CC [Compound 4, D-Ala4-Arg10-teixobactin] (H-[dNMeF]IS[dA][d(aIle)]IS[dT]ARI; ester 8-C) | 2–4 μg mL^–1 |
| CC[C@H](C)[C@H](NC(=O)[C@@H](Cc1ccccc1)NC)C(=O)N[C@@H](CO)C(=O)N[C@H](CCC(N)=O)C(=O)N[C@@H](C(=O)N[C@H](C(=O)N[C@@H](C)C(=O)N[C@H]1C(=O)N[C@@H](C)C(=O)N[C@@H](CCCNC(=N)N)C(=O)N[C@@H]([C@@H](C)CC)C(=O)O[C@H]1C)[C@@H](C)CC)[C@@H](C)CC [Compound 7, Ala7-Arg10-teixobactin] (H-[dNMeF]IS[dQ][d(aIle)]IA[dT]ARI; ester 8-C) | 16–32 μg mL^–1 |
